Measured values taken from PubChem BioAssay (NCI).
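Five compound concentrations were applied to cells in 96-well plates for 48 hours; endpoints were derived by simple linear interpolation of the resulting dose-response curve. At the GI50, growth is halved. TGI: concentration producing complete growth inhibition.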

Legend:
Test in all cases: growth of human tumour cells (NCI), 48 h
[1] = tested on: SF-539 CNS
[2] = tested on: OVCAR-3 ovarian
[3] = tested on: SN12C renal
[4] = tested on: IGROV1 ovarian
[5] = tested on: U251 CNS
[6] = tested on: 786-0 renal
[7] = tested on: CAKI-1 renal
[8] = tested on: OVCAR-5 ovarian
[9] = tested on: MCF7 breast
[10] = tested on: UO-31 renal

SMILES	GI50 [1]	TGI [1]	GI50 [2]	TGI [2]	GI50 [3]	TGI [3]	GI50 [4]	TGI [4]	GI50 [5]	TGI [5]	GI50 [6]	TGI [6]	GI50 [7]	TGI [7]	GI50 [8]	TGI [8]	GI50 [9]	TGI [9]	GI50 [10]	TGI [10]
COc1cc(C(=O)O)ccc1NC(=O)[C@@H]1N[C@@H](CC(C)(C)C)[C@](C#N)(c2ccc(Cl)cc2F)[C@H]1c1cccc(Cl)c1F	3.63 µM	11.5 µM	1.77 µM	4.3 µM	4.27 µM	> 41.9 µM	2.21 µM	17.3 µM	3.16 µM	11 µM	3.45 µM	18.4 µM	0.1 µM	7.01 µM	7.23 µM	24.9 µM	0.0328 µM	4.12 µM	0.0414 µM	5.03 µM
Fc1ccc(Nc2ccc3cc(OCCCN4CCOCC4)ccc3n2)cc1F	3.22 µM	18.7 µM	7.03 µM	> 100 µM	9.77 µM	> 100 µM	10.9 µM	> 100 µM	2.92 µM	7.79 µM	2.15 µM	4.68 µM	3.71 µM	25.6 µM	3.02 µM	> 100 µM	3.11 µM	27 µM	2.24 µM	6.84 µM
CC1(C)CC2=NOS3=C2C(=NO3)C1c1ccccn1 (centres undefined)		> 100 µM		> 100 µM		> 100 µM		84.5 µM		> 100 µM		> 100 µM		> 100 µM		> 100 µM		> 100 µM		> 100 µM
N#Cc1c(SCc2ccccc2)nc2[nH]c(=S)[nH]c(=S)c2c1-c1ccco1	31.7 µM	> 100 µM	25.8 µM	73.5 µM	15.7 µM	36.1 µM	> 100 µM	> 100 µM	> 100 µM	> 100 µM	42.6 µM	> 100 µM	42.9 µM	> 100 µM	66.4 µM	> 100 µM	28.4 µM	> 100 µM	61.2 µM	> 100 µM
O=c1[nH]cnc2c1nnn2[C@@H]1O[C@H](CO)[C@@H](O)[C@H]1O	7.66 µM	> 100 µM	3.43 µM	33.8 µM	6.4 µM	> 100 µM	2.57 µM	58.1 µM	25.8 µM	> 100 µM	3.83 µM	> 100 µM	1.04 µM	> 100 µM	19.3 µM	> 100 µM	3.29 µM	> 100 µM	4.46 µM	> 100 µM
O=C1NC(=O)[C@H]2C3C=CC([C@@H]12)[C@@H]1C(=O)NC(=O)[C@H]31		> 100 µM		> 100 µM		> 100 µM		> 100 µM		> 100 µM		> 100 µM		> 100 µM		> 100 µM		> 100 µM		> 100 µM
O=C(Nc1cccc(-c2nc3ccccc3[nH]2)c1)c1cccc(NC(=O)c2ccco2)c1	1.49 µM	2.88 µM	1.97 µM	3.39 µM	2.07 µM	4.88 µM	5.34 µM	17 µM	1.73 µM	3.23 µM	1.65 µM	3.05 µM	2.53 µM	7.21 µM	3.1 µM	11.1 µM	1.52 µM	3.02 µM	3.24 µM	11.8 µM
O=[N+]([O-])c1ccccc1/C=C/C=C1c2ccccc2-c2ccccc21	> 100 µM	> 100 µM	> 100 µM	> 100 µM	> 100 µM	> 100 µM	> 100 µM	> 100 µM	> 100 µM	> 100 µM	> 100 µM	> 100 µM	> 100 µM	> 100 µM	> 100 µM	> 100 µM	31.5 µM	> 100 µM	> 100 µM	> 100 µM
O=C1C(Br)=C(c2ccccc2)C(c2ccccc2)=C1c1ccccc1		8.07 µM		6.37 µM		3.85 µM		10.6 µM		9.83 µM		4.26 µM		6.06 µM		25.5 µM		7.68 µM		12.8 µM
OCC1OC(O)C(N=Cc2ccc3c(c2)OCO3)C(O)C1O (centres undefined)		> 100 µM		> 100 µM		> 100 µM		> 100 µM		> 100 µM		> 100 µM		> 100 µM		> 100 µM		> 100 µM		> 100 µM
O=C1CN2CCC1C/C2=C\c1ccnc2c(Cl)cccc12 (centres undefined)	> 100 µM	> 100 µM	> 100 µM	> 100 µM	> 100 µM	> 100 µM	34 µM	> 100 µM	64.4 µM	> 100 µM	> 100 µM	> 100 µM	21 µM	> 100 µM	> 100 µM	> 100 µM	4.16 µM	> 100 µM	17.7 µM	> 100 µM
COc1cc2c(cc1OCCCCCN1CCN(c3cc(=O)oc4c(C)c(OC)ccc34)CC1)N=C[C@@H]1CCCN1C2=O	< 0.0112 µM	0.128 µM	< 0.01 µM	0.0324 µM	< 0.01 µM	0.0699 µM	< 0.01 µM	0.0251 µM	< 0.01 µM	0.585 µM	< 0.01 µM		0.083 µM	0.537 µM	< 0.0123 µM	0.851 µM	< 0.01 µM	3.43 µM	0.014 µM	0.0383 µM
